Here are results for six compounds from patent US9802895B2, “Indole and benzimidazolecarboxamides as insecticides and acaricides” (BAYER CROPSCIENCE AKTIENGESELLSCHAFT, priority 2014, dated 2017).

Data set [1] has as its system engorged adult female cattle ticks (Boophilus microplus). Kind of data set: Boophilus microplus injection test (BOOPMI inj). Format: in vivo. The note with it: assessed after 7 days. On the procedure:
Boophilus microplus Injection Test (BOOPMI inj) Solvent: dimethyl sulphoxide To produce a suitable active compound formulation, 10 mg of active compound are mixed with 0.5 ml of solvent and the concentrate is diluted with solvent to the desired concentration. 1 μl of the active compound solution is injected into the abdomen of 5 engorged adult female cattle ticks (Boophilus microplus). The animals are transferred into dishes and kept in a climate-controlled room. The efficacy is assessed after 7 days by laying of fertile eggs. Eggs which are not visibly fertile are stored in a climate-controlled cabinet until the larvae hatch after about 42 days. An efficacy of 100% means that none of the ticks has laid any fertile eggs; 0% means that all the eggs are fertile.

Data set [2] deals with adult cat fleas (Ctenocephalides felis). Kind of data set: Ctenocephalides felis oral test (CTECFE). Type of data set: in vivo. The conditions noted are these: 100 ppm, oral in cattle blood, after 2 days. On the procedure: Ctenocephalides felis-Oral Test ([…]) Solvent: dimethyl sulphoxide To produce a suitable active compound formulation, 10 mg of active compound are mixed with 0.5 ml of dimethyl sulphoxide. Dilution with citrated cattle blood gives the desired concentration. About 20 unfed adult cat fleas (Ctenocephalides felis) are placed into a chamber which is closed at the top and bottom with gauze. A metal cylinder whose bottom end is closed with parafilm is placed onto the chamber. The cylinder contains the blood/active compound preparation, which can be imbibed by the fleas through the parafilm membrane. After 2 days, the kill in % is determined 100% means that all of the fleas have been killed; 0% means that none of the fleas have been killed.

Data set [3] has as its system L1 larvae of the Australian sheep blowfly (Lucilia cuprina). Kind of data set: Lucilia cuprina test (LUCICU). Format: in vivo. The note with it: 100 ppm, after 2 days. Here is the method:
Lucilia cuprina Test (LUCICU) Solvent: dimethyl sulphoxide To produce a suitable active compound formulation, 10 mg of active compound are mixed with 0.5 ml of dimethyl sulphoxide, and the concentrate is diluted with water to the desired concentration. About 20 L1 larvae of the Australian sheep blowfly (Lucilia cuprina) are transferred into a test vessel containing minced horsemeat and the active compound preparation of the desired concentration. After 2 days, the kill in % is determined 100% means that all the larvae have been killed; 0% means that none of the larvae have been killed.

In data set [4] the test system is adult houseflies (Musca domestica). Kind of data set: Musca domestica test (MUSCDO). Type of data set: in vivo. The conditions noted are these: 100 ppm, after 2 days. On the procedure:
Musca domestica Test (MUSCDO) Solvent: dimethyl sulphoxide To produce a suitable active compound formulation, 10 mg of active compound are mixed with 0.5 ml of dimethyl sulphoxide, and the concentrate is diluted with water to the desired concentration. Vessels containing a sponge treated with sugar solution and the active compound preparation of the desired concentration are populated with 10 adult houseflies (Musca domestica). After 2 days, the kill in % is determined. 100% means that all of the flies have been killed; 0% means that none of the flies have been killed.

Data set [5] relates to larvae of the mustard beetle (Phaedon cochleariae). Briefly: Phaedon cochleariae spray test (PHAECO). The conditions noted are these: 100 g/ha, after 7 days. Type of data set: in vivo. On the procedure:
Phaedon cochleariae—Spray Test (PHAECO)
(§1) Solvent: 78.0 parts by weight of acetone • • 1.5 parts by weight of dimethylformamide
(§2) Emulsifier: alkylaryl polyglycol ether
(§3) To produce a suitable active compound formulation, 1 part by weight of active compound is dissolved using the specified parts by weight of solvent and made up with water containing an emulsifier concentration of 1000 ppm until the desired concentration is attained. To produce further test concentrations, the preparation is diluted with emulsifier-containing water.
After 7 days, the efficacy in % is determined. 100% means that all the beetle larvae have been killed; 0% means that no beetle larvae have been killed.

Data set [6] deals with caterpillars of the armyworm (Spodoptera frugiperda). Briefly: Spodoptera frugiperda spray test (SPODFR). The conditions noted are these: for efficacy: 100 g/ha, spray, after 7 days. Format: in vivo. On the procedure: Spodoptera frugiperda—Spray Test (SPODFR) Solvent: 78.0 parts by weight of acetone • • 1.5 parts by weight of dimethylformamide Emulsifier: alkylaryl polyglycol ether To produce a suitable active compound formulation, 1 part by weight of active compound is dissolved using the specified parts by weight of solvent and made up with water containing an emulsifier concentration of 1000 ppm until the desired concentration is attained. To produce further test concentrations, the preparation is diluted with emulsifier-containing water. Leaf discs of maize (Zea mays) are sprayed with an active compound formulation of the desired concentration and, after drying, populated with caterpillars of the armyworm (Spodoptera frugiperda). After 7 days, the efficacy in % is determined 100% means that all the caterpillars have been killed; 0% means that no caterpillars have been killed. Spodoptera frugiperda—Spray Test (SPODFR) Solvent: 78.0 parts by weight of acetone • • 1.5 parts by weight of dimethylformamide Emulsifier: alkylaryl polyglycol ether To produce a suitable active compound formulation, 1 part by weight of active compound is dissolved using the specified parts by weight of solvent and made up with water containing an emulsifier concentration of 1000 ppm until the desired concentration is attained. To produce further test concentrations, the preparation is diluted with emulsifier-containing water. Leaf discs of maize (Zea mays) are sprayed with an active compound formulation of the desired concentration and, after drying, populated with caterpillars of the armyworm (Spodoptera frugiperda). After the desired period of time, the efficacy in % is determined. 100% means that all the caterpillars have been killed; 0% means that no caterpillars have been killed.

Data set [7] relates to greenhouse red spider mite (Tetranychus urticae). Kind of data set: Tetranychus urticae spray test, OP-resistant (TETRUR). Type of data set: in vivo. The conditions noted are these: for efficacy: 100 g/ha, spray, after 6 days. On the procedure:
Tetranychus urticae—Spray Test, OP-Resistant (TETRUR)
as §1, §2, §3
Discs of bean leaves (Phaseolus vulgaris) infested by all stages of the greenhouse red spider mite (Tetranychus urticae) are sprayed with an active compound formulation of the desired concentration.
After 6 days, the efficacy in % is determined 100% means that all the spider mites have been killed; 0% means that none of the spider mites have been killed.
Tetranychus urticae—Spray Test; OP-Resistant (TETRUR)
After the desired period of time, the efficacy in % is determined 100% means that all the spider mites have been killed; 0% means that none of the spider mites have been killed.

In data set [8] the test system is mixed thrips population (Frankliniella occidentalis). Briefly: Frankliniella occidentalis spray test (FRANOC). The note with it: 7 dat. Format: in vivo. Here is the method: Frankliniella occidentalis—Spray Test (FRANOC) Solvent: 7 parts by weight of dimethylformamide Emulsifier: alkylaryl polyglycol ether To produce a suitable active compound formulation, 1 part by weight of active compound is dissolved using the specified parts by weight of solvent and made up with water containing an emulsifier concentration of 1000 ppm until the desired concentration is attained. To produce further test concentrations, the preparation is diluted with emulsifier-containing water. If the addition of ammonium salts or/and penetrants is required, these are each added in a concentration of 1000 ppm to the formulation solution. Bush bean plants (Phaseolus vulgaris) are sprayed with an active compound preparation of the desired concentration. After drying, the treated plants are infected with a mixed thrips population (Frankliniella occidentalis). After the desired period of time, the plant-protective efficacy in % is determined. 100% means that no damage is evident; 0% means that the damage to the treated plant corresponds to that of the untreated control.

Data set [9] concerns L2 larvae of the banded cucumber beetle (Diabrotica balteata). Briefly: Diabrotica balteata drench test (DIABBA). The conditions noted are these: 8 dat. Type of data set: in vivo. Here is the method:
Diabrotica balteata—Drench Test (DIABBA) Solvent: 7 parts by weight of dimethylformamide Emulsifier: 2 parts by weight of alkylaryl polyglycol ether To produce a suitable active compound formulation, 1 part by weight of active compound is mixed with the specified amounts of solvent and emulsifier, and the concentrate is diluted with water to the desired concentration, it being necessary to include the volume of soil which is drenched in the calculation. It should be ensured that a concentration of 40 ppm of emulsifier in the soil is not exceeded. To produce further test concentrations, water is used for dilution. […] After one day, 25 L2 larvae of the banded cucumber beetle (Diabrotica balteata) are added. After 8 days, the efficacy in % is determined 100% means that all 5 plants have germinated and grown; 0% means that none of the plants has emerged.

Data set [10] can be described thus: log P by HPLC (EEC directive 79/831 Annex V.A8). Type of data set: physicochemical. The conditions noted are these: HPLC, reversed-phase column (C18), 43° C., acidic range pH 2.7. On the procedure: a) The determination of the M^+ by LC-MS in the acidic range is effected at pH 2.7, acetonitrile (contains 0.1% formic acid) and water as eluents; linear gradient from 10% acetonitrile to 95% acetonitrile, instrument: Agilent 1100 LC system, Agilent MSD system, HTS PAL. The log P values reported in the tables and Preparation Examples above were determined in accordance with EEC directive 79/831 Annex V.A8 by HPLC (High Performance Liquid Chromatography) using a reversed-phase column (C18). Temperature 43° C. The calibration is effected with unbranched alkan-2-ones (having 3 to 16 carbon atoms), for which the logP values are known.

`Cn1c(C(=O)NC(c2ccc(Cl)c(C(F)(F)F)c2)C(F)(F)F)cc2cc(C(=O)NC3(C(N)=S)CC3)c(Cl)cc21` (stereo not shown) [I-16]: in data set [1], the “efficacy (laying of fertile eggs)” value worked out at 100%. Moreover, the “efficacy (kill in %)” value in [2], in data set [3] and in data set [4] was 100% throughout. Besides, the efficacy in [5], in data set [6] and in [7] was 100% each time. The “% efficacy (plant-protective)” value in data set [8] (0.8 ppm) and in [8] (4 ppm) was 90% throughout. For the same compound, the “% efficacy” value in [9] (4 ppm) stood at 50%; in data set [9] (20 ppm) it was 100%. The “log P” value in data set [10] was 3.70.
For `CCn1c(C(=O)NC(c2cc(Cl)cc(C(F)(F)F)c2)C(F)(F)F)cc2cc(C(=O)NC3(C(N)=S)CC3)c(Cl)cc21` (stereo not shown) [I-22], the “efficacy (laying of fertile eggs)” value in [1] is given as 100%. The “efficacy (kill in %)” value in [2], in [3] and in [4] was 100% each time. The efficacy in data set [5], in data set [6] and in [7] was 100% each time. In addition, the “% efficacy” value is on record as 100% in data set [6] (SPODFR, 0.8 g/ha, 7 dat); 100% in data set [6] (SPODFR, 4 g/ha, 7 dat); 100% in [7] (TETRUR, 4 g/ha, 6 dat); 100% in [7] (TETRUR, 20 g/ha, 6 dat); 50% in data set [9] (4 ppm); 100% in data set [9] (20 ppm). The log partition coefficient (log P) in data set [10] is listed as 4.11.
In the case of `CCn1c(C(=O)NC(c2cc(Cl)c(F)c(F)c2F)C(F)(F)F)cc2cc(C(=O)NC3(C(N)=S)CC3)c(Cl)cc21` (stereo not shown) [I-26], the “efficacy (laying of fertile eggs)” value in [1] is listed as 100%. The “efficacy (kill in %)” value in data set [2], in data set [3] and in data set [4] was 100% throughout. Further, the efficacy in data set [5], in data set [6] and in data set [7] was 100% in each case. In addition, the “log P” value in [10] is 3.99.
In the case of `CCn1c(C(=O)NC(c2cc(F)c(Cl)c(Cl)c2F)C(F)(F)F)cc2cc(C(=O)NC3(C(N)=S)CC3)c(Cl)cc21` (stereo not shown) [I-27], the “efficacy (laying of fertile eggs)” value in [1] is given as 100%. Moreover, the “efficacy (kill in %)” value in data set [2], in data set [3] and in data set [4] was 100% each time. For the same compound, the efficacy in data set [5], in data set [6] and in [7] was 100% each time. The lipophilicity (log P) in data set [10] was 4.28.
Consider `CCn1c(C(=O)NC(c2cc(F)c(Cl)c(F)c2F)C(F)(F)F)cc2cc(C(=O)NC3(C(N)=S)CC3)c(Cl)cc21` (stereo not shown) [I-31], for which the “efficacy (laying of fertile eggs)” value in data set [1] came out at 100%. In addition, the “efficacy (kill in %)” value in data set [2], in [3] and in data set [4] was 100% each time. Besides, the efficacy in data set [5], in [6] and in [7] was 100% throughout. Also, the log partition coefficient (log P) in data set [10] came to 4.02.
For `CCn1c(C(=O)NC(c2cccc(C(F)(F)F)c2)C(F)(F)F)cc2cc(C(=O)NC3(C(N)=S)CC3)c(Cl)cc21` (stereo not shown) [reference compound], the Emax at 0.8 g/ha in [6] (Spodoptera frugiperda, 168 h, SPODFR, 0.8 g/ha, 7 dat, read-out: % efficacy) was 33%. The same compound displayed a % efficacy (mortality) at a single application rate at 4 g/ha in data set [6] (Spodoptera frugiperda, 168 h, SPODFR, 4 g/ha, 7 dat) of 100%. For the same compound, the Emax at 4 g/ha in data set [7] (Tetranychus urticae, 144 h, TETRUR, 4 g/ha, 6 dat, read-out: % efficacy) is 70%. Also, the Emax at 20 g/ha in data set [7] (Tetranychus urticae, 144 h, TETRUR, 20 g/ha, 6 dat, read-out: % efficacy) came to 100%. In addition, the Emax at 0.8 ppm in data set [8] (Thrips, 168 h, 0.8 ppm, read-out: % efficacy (plant-protective)) worked out at 60%. For the same compound, the Emax at 4 ppm in [8] (Thrips, 168 h, 4 ppm, read-out: % efficacy (plant-protective)) came out at 98%; in data set [9] (Diabrotica balteata, soil, 192 h, 4 ppm, read-out: % efficacy), 70%. In data set [9] (Diabrotica balteata, soil, 192 h, 20 ppm, read-out: % efficacy), the Emax at 20 ppm worked out at 60%.

Broadly, the log P is the decadic logarithm of the partition coefficient of the neutral form, usually between octanol and water. Higher therefore signals higher lipophilicity.
